Data published in patent US20220387396A1, “METHODS OF TREATING THE SYMPTOMS OF AUTISM SPECTRUM DISORDER” (MapLight Therapeutics, Inc., priority 2019, published 2022).
Where “and” joins values, the source holds several entries; their conditions need not be identical. Equal entries are not always repeated. Marks after values point to notes of the source that are not given here. Each block holds one compound with its values, some of them ahead of it.

How the values were obtained:
[1] = target: T1, human 5-HT1b (h5-HT1b) receptors (Homo sapiens, UniProt P28222); assay: SPA-based 35S-GTPγS binding assay, human 5-HT1b; assay type: biochemical; conditions: for EC50: ten concentrations in duplicate
T1 construct: expressed in transfected cells
T1 sequence (P28222 whole entry): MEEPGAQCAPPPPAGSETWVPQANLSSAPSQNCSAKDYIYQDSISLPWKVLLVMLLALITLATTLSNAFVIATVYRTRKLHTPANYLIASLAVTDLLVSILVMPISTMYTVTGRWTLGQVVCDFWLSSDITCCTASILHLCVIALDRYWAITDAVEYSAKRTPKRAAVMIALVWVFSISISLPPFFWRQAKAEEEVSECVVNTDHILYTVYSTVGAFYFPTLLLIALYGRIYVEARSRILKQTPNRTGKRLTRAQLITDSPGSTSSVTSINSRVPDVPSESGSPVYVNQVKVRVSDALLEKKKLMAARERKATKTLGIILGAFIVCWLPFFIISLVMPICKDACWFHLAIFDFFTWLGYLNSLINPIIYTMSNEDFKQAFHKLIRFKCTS

[2] = target: T2, rat recombinant 5-HT1b (r5-HT1b) receptors (Rattus norvegicus, UniProt P28564); assay: SPA-based 35S-GTPγS binding assay, rat 5-HT1b; assay type: biochemical; conditions: for EC50: ten concentrations in duplicate
T2 construct: expressed in transfected cells
T2 sequence (P28564 whole entry): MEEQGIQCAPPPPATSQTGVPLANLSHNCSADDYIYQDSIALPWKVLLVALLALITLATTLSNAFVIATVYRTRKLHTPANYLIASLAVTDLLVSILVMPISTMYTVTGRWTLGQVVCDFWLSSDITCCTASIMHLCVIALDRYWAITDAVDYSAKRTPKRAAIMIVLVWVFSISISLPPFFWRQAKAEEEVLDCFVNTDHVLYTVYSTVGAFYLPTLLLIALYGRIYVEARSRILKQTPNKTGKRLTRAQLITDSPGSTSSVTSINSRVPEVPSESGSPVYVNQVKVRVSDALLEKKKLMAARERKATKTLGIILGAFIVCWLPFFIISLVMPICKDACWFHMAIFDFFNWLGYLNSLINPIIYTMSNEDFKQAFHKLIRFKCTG

5-HT1b receptor [3] = target: T3, 5-HT1b receptor (Homo sapiens, UniProt P28222); assay: Radioligand binding competition assay with 3H-5-CT; conditions: for Ki: 3H-5-CT, derived from IC50 using Cheng-Prusoff equation
T3 sequence (P28222 whole entry): as the sequence (P28222 whole entry) above
Source text: The Ki values were derived from IC50 values using Cheng-Prusoff equation.

[4] = CSF exposure in c57/B16 mice after i.p. dosing
[5] = CSF exposure in adult male CD-1 mice after i.p. dosing; conditions: male CD-1 mice dosed with zolmitriptan 3 and 10 mg/kg i.p.
resident CD-1 mice = assay: Resident-Intruder (RI) assay, CD-1 resident / C57BL/6 intruder; assay type: in vivo, mouse; conditions: CD-1 resident mice, cross-over, N=25, zolmitriptan 10 mg/kg, risperidone 0.03 mg/kg, mean; for Attack Time (s): 5 min period
Protocol: The resident mice were isolated for 1 week prior to testing aggressive behavior, while the intruders were group housed (4 per cage) throughout the study. All mice were given ad libitum food and water. Following the 1-week isolation period, aggressive behaviors were recorded using a front-facing camera daily (Monday-Friday) for up to 2 weeks to attain a stable baseline prior to evaluating drug effects. The interaction was scored using Borris open source event logging software to score the number of total initiated attacks by the resident and the cumulative duration of those attacks. Single fight bouts lasting longer than 60 seconds were stopped and the intruder was subsequently removed from the resident cage. […] Attack time was measured over a 5 min period as a cross over design.

resident BALB/c mice = assay: Resident-Intruder (RI) assay, BALB/c resident / C57BL/6 intruder; assay type: in vivo, mouse
Source text: Correspondingly, the RI assay has been used preclinically to study the effect of drugs on rodent aggression (Miczek et al., 2001). The RI assay typically relies on the interpretation and scoring of offensive (resident animal) behavior patterns and may also include analysis of defensive (intruder animal) behavior patterns as well. […] The resident mice were isolated for 1 week prior to testing aggressive behavior, while the intruders were group housed (4 per cage) throughout the study. All mice were given ad libitum food and water. Following the 1-week isolation period, aggressive behaviors were recorded using a front-facing camera daily (Monday-Friday) for up to 2 weeks to attain a stable baseline prior to evaluating drug effects. The interaction was scored using Borris open source event logging software to score the number of total initiated attacks by the resident and the cumulative duration of those attacks. Single fight bouts lasting longer than 60 seconds were stopped and the intruder was subsequently removed from the resident cage. […] The resident mice were treated with vehicle for two consecutive days and then balanced for a two arm (3 and 10 mg/kg) cross over study. […] The consecutive fourth and fifth days were vehicle treatment followed by a final cross over treatment day on the sixth day.

[6] = system: VPA-exposed male c57/B16 mice; assay: 3-chamber Social Interaction Assay in valproic acid (VPA)-induced mouse model of ASD; assay type: in vivo; conditions: adult male c57/B16 mice previously exposed to VPA; 10 mg/kg i.p. 15 min before test; vs vehicle
Protocol: Specifically, sociability was evaluated in male c57/B16 mice that were previously exposed to valproic acid (VPA) via i.p. delivery of 500 mg/kg to their pregnant mothers at embryonic Day 13.
In this study, zolmitriptan was dissolved in 10% (2-Hydroxypropyl)-o-cyclodextrin in saline and administered intraperitoneally (i.p.) 15 minutes before mice were placed in the test chamber. Behavioral recordings were measured using an automated video tracking system (Noldus EthoVision v14) and analyzed and graphed using GraphPad Prism software v8. Sociability was assessed during a 10 min period in the 3-chamber Social Interaction Assay. The time spent (sec) in the social interaction zone (SIZ) in front of the juvenile novel C57/BL6 vs empty interaction zone (EIZ) were used to calculate the sociability scores for individual mice. Sociability index was calculated using SIZ/EIZ ratio. Social interaction preference was calculated using (SIZ)/(SIZ+EIZ)*100. Simultaneous recording up to 4 arenas were conducted for the social interaction assay. Paired and unpaired T tests were used as statistical tests.

[7] = Multiple ascending oral dose study in adult healthy volunteers (safety, tolerability, CSF PK); assay type: in vivo, human
Protocol: An investigation of the safety, tolerability and pharmacokinetic response of oral zolmitriptan following multiple ascending doses in adult healthy volunteer subjects was undertaken.
Zolmitriptan 2.5 mg per tablet or placebo tablet was administered 3 times per day (TID) for an up-titration period, treatment period of 7 days, and a down-titration period. The dose regimen is depicted in Table 1.
A lumbar puncture was completed on each subject to determine the concentration of zolmitriptan in the CSF. CSF samples were collected on day 5 of treatment for Cohort 1 and day 7 of treatment for Cohorts 2 and 3, and day 8 of treatment for cohort 4 and 5. The CSF collection was 2 hours after the morning dose (+/−30 minutes). CSF concentration was measured using a validated bioanalytical method.

5-HT1b receptor [8] = target: T3, 5-HT1b receptor; assay: 5-HT1b receptor occupancy and efficacy model, human dose prediction; conditions: for Zolmitriptan human dose: predicted dose; for Zolmitriptan [CSF]: predicted effective human CSF range
Source text: Specifically, 5-HT1b receptor occupancy and efficacy models measured potency of zolmitriptan and NMDZ at the 5-HT1b receptor and the ratio of zolmitriptan: NDMZ in human CSF.
Using classical receptor theory, the receptor occupancy when considering two ligands (i.e., entities) can be predicted using the following relationship:
Total % occupancy=(% occupancy by A)+{[100%−(% occupancy by A)]×(% occupancy by B)} when considering a fixed concentration of both A and B.
The model was converted to predict the level of 5-HT1b activation (i.e., efficacy) by both zolmitriptan and NDMZ based on the concentration of zolmitriptan in the CSF by substituting Occupancy for Efficacy as predicted by the Clark equation {Efficacy=[L]/([L]+Ki); [L]=ligand concentration} for both zolmitriptan and NDMZ:
Total % Efficacy={[Zolmitriptan]/([Zolmitriptan]+Ki,Z)}+(100−{[Zolmitriptan]/([Zolmitriptan]+Ki,Z)}×{[NDMZ]/([NDMZ]+Ki,N)}

in vivo = conditions: male, CD-1, mouse, ip
[9] = male, c57/B16, mouse, CSF, ip, 10 mg/kg
[10] = BALB/c resident mice, 3 and 10 mg/kg i.p., 15 min pretreatment, 5 min interaction, cross-over vs vehicle

SMILES: CNCCc1c[nH]c2ccc(C[C@H]3COC(=O)N3)cc12 [NDMZ, N-desmethyl zolmitriptan]
Ki (5-HT1b receptor [3]): 1.18 nM
potency relative to zolmitriptan at human 5-HT1b (5-HT1b receptor [3]; from Ki values): 2.83 fold
metabolite NDMZ level in CSF ([4]; male c57/B16 mice dosed with zolmitriptan 10 mg/kg i.p.): below the lower limit of quantification
metabolite NDMZ level [5]: below the lower limit of quantification

SMILES: Cc1nc2n(c(=O)c1CCN1CCC(c3noc4cc(F)ccc34)CC1)CCCC2 [Risperidone]
Attack Time (s) (resident CD-1 mice): 21.58* s
Latency to Attack (resident CD-1 mice): 12.98 s

SMILES: CN(C)CCc1c[nH]c2ccc(C[C@H]3COC(=O)N3)cc12 [Zolmitriptan, zolmitriptan]
attack time (resident BALB/c mice; [10]): reduction
number of attacks (resident BALB/c mice; [10]): reduction in the number of attacks
attack behavior, dose dependence (resident BALB/c mice; BALB/c resident mice, 3 and 10 mg/kg i.p., p<0.05, paired t-test): significant dose dependent effect of reduction in attack behavior
normal locomotor activity (resident BALB/c mice; treated mice, 3 and 10 mg/kg): did not effect normal locomotor activity
Attack Time (s) (resident CD-1 mice): 18.46*** s
Attack Time (s) (resident CD-1 mice; listed as zolmitriptan): greater reduction in attack time
Latency to Attack (resident CD-1 mice): 13.54 s
sociability index (SIZ/EIZ ratio) [6]: increased the sociability index
safety and tolerability ([7]; adult healthy volunteers, oral TID multiple ascending doses, all Cohorts): safe and well tolerated
Kp at 2 h ([7]; human, CSF, oral, read-out: CSF: plasma ratio for exposure): 0.03
CSF levels required for therapeutic effect, humans vs mice (fold lower) ([1]; extrapolated from species difference in EC50): about 8.3 fold
EC50 [1]: 4 nM
activity in GTPgS at CSF Cmax ([2]; CD-1 mouse, 3 mg/Kg i.p., CSF Cmax 18.8 nM): 36%
activity in GTPgS at CSF Cmax ([2]; c57/Bl6 mouse, 10 mg/Kg i.p., CSF Cmax 62 nM): 65%
difference between species in EC50 (rat vs human 5-HT1b) ([2]; rat EC50 relative to human EC50): 8.3 fold
EC50 [2]: 33 nM
Ki (5-HT1b receptor [3]): 3.34 nM
concentration for 50% Total Efficacy relative to zolmitriptan EC50 (5-HT1b receptor [8]; combined effect of metabolite): 3.7 fold
concentration of zolmitriptan in human CSF predicted to induce 50% efficacy (EC50) of 5-HT1b by zolmitriptan and NDMZ (5-HT1b receptor [8]; model prediction): 1.09 nM and 0.31 ng/ml
Zolmitriptan human dose (5-HT1b receptor [8]; Activity EC20-EC80): 1.25 to 35 mg
Zolmitriptan human dose (5-HT1b receptor [8]; Activity EC25-EC75): 1.7 to 30 mg
Zolmitriptan human dose (5-HT1b receptor [8]; Activity EC30-EC70): 2.25 to 20 mg
Zolmitriptan human dose (5-HT1b receptor [8]; Activity EC35-EC65): 3 to 15 mg
Zolmitriptan human dose (5-HT1b receptor [8]; Activity EC40-EC60): 5 to 12.5 mg
Zolmitriptan [CSF] (5-HT1b receptor [8]; Activity EC20-EC80): 0.078 to 1.24 ng/mL
Zolmitriptan [CSF] (5-HT1b receptor [8]; Activity EC25-EC75): 0.103 to 0.93 ng/mL
Zolmitriptan [CSF] (5-HT1b receptor [8]; Activity EC30-EC70): 0.135 to 0.713 ng/mL
Zolmitriptan [CSF] (5-HT1b receptor [8]; Activity EC35-EC65): 0.167 to 0.577 ng/mL
Zolmitriptan [CSF] (5-HT1b receptor [8]; Activity EC40-EC60): 0.207 to 0.465 ng/mL
Cmax (in vivo; 3 mg/kg): 5.4 ng/mL
Cmax (in vivo; 10 mg/kg): 34.4 ng/mL
c57/B16 mouse CSF Cmax (10 mg/Kg, i.p.) ([4]; 10 mg/Kg i.p.): 17.83 ng/mL
estimated effective CSF Cmax ([4]; c57/Bl6 ASD mouse model, 10 mg/Kg i.p.): 62 nM
Kp ([4]; male, c57/B16, mouse, CSF, intraperitoneal, 10 mg/kg): 0.0076
Cmax [4, 9]: 17.8 ng/mL
Kp [4, 9]: 0.0076

Further lines, results first:

EC50 [1]: 8.8 nM
EC50 [2]: 120 nM
Ki (5-HT1b receptor [3]): 4.48 nM
c57/B16 mouse CSF Cmax (10 mg/Kg, i.p.) ([4]; 10 mg/Kg i.p.): 13.46 ng/mL
Kp [4, 9]: 0.0077
SMILES: CN1CCC[C@@H]1Cc1c[nH]c2ccc(CCS(=O)(=O)c3ccccc3)cc12 [Eletriptan, eletriptan]

c57/B16 mouse CSF Cmax (10 mg/Kg, i.p.) ([4]; 10 mg/Kg i.p.): 12.52 ng/mL
Kp [4, 9]: 0.0015
SMILES: CN[C@@H]1CCc2[nH]c3ccc(C(N)=O)cc3c2C1 [Frovatriptan, frovatriptan]

EC50 [1]: 1.2 nM
EC50 [2]: 7.4 nM
Ki (5-HT1b receptor [3]): 0.95 nM
c57/B16 mouse CSF Cmax (10 mg/Kg, i.p.) ([4]; 10 mg/Kg i.p.): 79.56 ng/mL
Kp [4, 9]: 0.0312
SMILES: CNS(=O)(=O)CCc1ccc2[nH]cc(C3CCN(C)CC3)c2c1 [Naratriptan, naratriptan]

EC50 [2]: 210 nM
c57/B16 mouse CSF Cmax (10 mg/Kg, i.p.) ([4]; 10 mg/Kg i.p.): 90.20 ng/mL
Kp [4, 9]: 0.0466
SMILES: CN(C)CCc1c[nH]c2ccc(Cn3cncn3)cc12 [Rizatriptan, rizatriptan]
